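Each compound was tested at five concentrations against cells in 96-well plates for 48 hours. GI50 is the concentration that inhibits growth by half.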 The source made the active and inactive calls. Cut-off read from the data, not from the text of the source: active = GI50 up to about 1.1 µM and inactive = higher.
Assays:
Assay in all cases: growth of human tumour cells (NCI), 48 h
[1] = system: UACC-62
[2] = system: SF-268
[3] = system: OVCAR-4
[4] = system: MOLT-4
[5] = system: OVCAR-3
[6] = system: NCI-H226
[7] = system: A498
[8] = system: UACC-257
[9] = system: KM12
[10] = system: OVCAR-8
[11] = system: SF-295
[12] = system: HCT-15
[13] = system: Hs-578T
[14] = system: HCT-116
[15] = system: SN12C
[16] = system: NCI/ADR-RES
[17] = system: MDA-N
[18] = system: TK-10
[19] = system: LOX IMVI

Compound | GI50 [1] | GI50 [2] | GI50 [3] | GI50 [4] | GI50 [5] | GI50 [6] | GI50 [7] | GI50 [8] | GI50 [9] | GI50 [10] | GI50 [11] | GI50 [12] | GI50 [13] | GI50 [14] | GI50 [15] | GI50 [16] | GI50 [17] | GI50 [18] | GI50 [19]
CC(C)c1ccc2nc3ccc(C(=O)NCCN(C)C)cn3c(=O)c2c1 | 16.6 µM (inactive) | 17.5 µM (inactive) | 24.7 µM (inactive) | 15 µM (inactive) | 29.2 µM (inactive) | 18 µM (inactive) | 14 µM (inactive) | 12.1 µM (inactive) | 17.3 µM (inactive) | 18.8 µM (inactive) | 10.9 µM (inactive) | 13.8 µM | 15.2 µM (inactive) | 13.9 µM (inactive) | 14.8 µM (inactive) | 18.2 µM (inactive) | 16.4 µM (inactive) | 17.3 µM (inactive) | –
CCOc1cc2c(cc1O)CC[C@@H]1[C@@H]2CC[C@]2(C)[C@@H](O)CC[C@@H]12 | 0.019 µM (active) | 0.0612 µM (active) | 12.4 µM (inactive) | 0.0401 µM (active) | 0.0184 µM (active) | 0.423 µM (active) | 2.09 µM (inactive) | < 0.01 µM (active) | 1.22 µM (inactive) | 0.109 µM (active) | 0.138 µM (active) | < 0.0138 µM | 0.0306 µM (active) | 0.0234 µM (active) | 0.0778 µM (active) | 0.0173 µM (active) | 0.0107 µM (active) | – | 0.0179 µM (active)
CCOC(=O)N1CCC2(CC1)C[C@@](C(C)=O)(c1ccccc1)C(C)O2 (stereo partly drawn) | 56 µM (inactive) | > 100 µM (inactive) | > 100 µM (inactive) | > 100 µM (inactive) | > 100 µM (inactive) | > 100 µM (inactive) | > 100 µM (inactive) | > 100 µM (inactive) | > 100 µM (inactive) | > 100 µM (inactive) | > 100 µM (inactive) | > 100 µM | > 100 µM (inactive) | – | – | > 100 µM (inactive) | 85.1 µM (inactive) | > 100 µM (inactive) | > 100 µM (inactive)
O=C1CC(NC2CC(=O)c3c(Br)sc(Br)c32)c2c(Br)sc(Br)c21 (stereo not drawn) | 11.9 µM (inactive) | 11.7 µM (inactive) | 8.51 µM (inactive) | 2.26 µM (inactive) | 4.44 µM (inactive) | 17.4 µM (inactive) | 18.6 µM (inactive) | 2.03 µM (inactive) | 1.99 µM (inactive) | 3.26 µM (inactive) | 13.6 µM (inactive) | 2.94 µM | 4.91 µM (inactive) | 2.14 µM (inactive) | 1.56 µM (inactive) | 13.9 µM (inactive) | 2.06 µM (inactive) | 2.88 µM (inactive) | 1.92 µM (inactive)
Cc1nc2ccc(S(=O)(=O)O)cc2c(=O)n1-c1ccc(C(=O)NN2C(=O)C(Cl)C2c2ccccc2O)cc1 (stereo not drawn) | – | > 100 µM (inactive) | > 100 µM (inactive) | > 100 µM (inactive) | > 100 µM (inactive) | > 100 µM (inactive) | > 100 µM (inactive) | > 100 µM (inactive) | > 100 µM (inactive) | > 100 µM (inactive) | > 100 µM (inactive) | > 100 µM | > 100 µM (inactive) | > 100 µM (inactive) | > 100 µM (inactive) | > 100 µM (inactive) | > 100 µM (inactive) | > 100 µM (inactive) | > 100 µM (inactive)
CC1(C)N[PH]2(Nc3ccccc3O2)OC1=O | 18.6 µM (inactive) | > 100 µM (inactive) | > 100 µM (inactive) | 22.8 µM (inactive) | > 100 µM (inactive) | 35.9 µM (inactive) | > 100 µM (inactive) | > 100 µM (inactive) | > 100 µM (inactive) | 82.8 µM (inactive) | 24.7 µM (inactive) | 64.9 µM | > 100 µM (inactive) | > 100 µM (inactive) | > 100 µM (inactive) | 49.9 µM (inactive) | 19.2 µM (inactive) | 68.2 µM (inactive) | 18.3 µM (inactive)
CCOC(=O)/C(=C\NC(=S)Nc1ccc(OCC)cc1)C(=O)c1ccccc1 | > 100 µM (inactive) | > 100 µM (inactive) | 79.8 µM (inactive) | > 100 µM (inactive) | > 100 µM (inactive) | > 100 µM (inactive) | 20.7 µM (inactive) | > 100 µM (inactive) | > 100 µM (inactive) | > 100 µM (inactive) | > 100 µM (inactive) | > 100 µM | 57.9 µM (inactive) | > 100 µM (inactive) | > 100 µM (inactive) | > 100 µM (inactive) | > 100 µM (inactive) | – | > 100 µM (inactive)
CCCC(=O)OCC1OC(n2cc(F)c(=O)[nH]c2=O)C(F)C1O (stereo not drawn) | > 31.5 µM (inactive) | > 26.4 µM (inactive) | > 100 µM (inactive) | > 35.6 µM (inactive) | 31 µM (inactive) | 99.3 µM (inactive) | 8.39 µM (inactive) | > 59.7 µM (inactive) | > 100 µM (inactive) | > 38.5 µM (inactive) | > 27.5 µM (inactive) | > 84.7 µM | 99.3 µM (inactive) | > 22.4 µM (inactive) | > 82.8 µM (inactive) | 53.3 µM (inactive) | 14.9 µM (inactive) | > 100 µM (inactive) | 11.4 µM (inactive)
O=C1C(Cl)C2(CC(/C=C/c3ccccc3O)=NN2c2cccc(S(=O)(=O)O)c2)N1c1nc2ccccc2s1 (stereo not drawn) | 15.2 µM (inactive) | 16 µM (inactive) | 13.4 µM (inactive) | 17.1 µM (inactive) | – | 18.9 µM (inactive) | 20.9 µM (inactive) | 16.1 µM (inactive) | 14.8 µM (inactive) | 24.3 µM (inactive) | – | 18.2 µM | 23.9 µM (inactive) | 15.4 µM (inactive) | 14.2 µM (inactive) | 36.1 µM (inactive) | 18.6 µM (inactive) | 12.3 µM (inactive) | 9.62 µM (inactive)
CC1=NN(c2nc(N)nc(/C(C#N)=C/c3cccn3-c3cc(Cl)cc(Cl)c3)n2)C(C)(C)C1 | > 100 µM (inactive) | 15.5 µM (inactive) | > 100 µM (inactive) | – | > 100 µM (inactive) | > 100 µM (inactive) | > 100 µM (inactive) | > 100 µM (inactive) | > 100 µM (inactive) | 12 µM (inactive) | > 100 µM (inactive) | > 100 µM | 32.9 µM (inactive) | > 100 µM (inactive) | 35.2 µM (inactive) | > 100 µM (inactive) | > 100 µM (inactive) | > 100 µM (inactive) | 83 µM (inactive)
Cn1c2ccccc2n2c3ccccc3c(=S)c(C#N)c12 | > 100 µM (inactive) | > 100 µM (inactive) | > 100 µM (inactive) | > 100 µM (inactive) | > 100 µM (inactive) | > 100 µM (inactive) | > 100 µM (inactive) | > 100 µM (inactive) | > 100 µM (inactive) | > 100 µM (inactive) | > 100 µM (inactive) | > 100 µM | > 100 µM (inactive) | > 100 µM (inactive) | – | > 100 µM (inactive) | > 100 µM (inactive) | > 100 µM (inactive) | > 100 µM (inactive)
Cc1ccc(S(=O)(=O)Nn2c(O)c(C#N)c(-c3ccc(Cl)cc3)c(C#N)c2=O)cc1 | > 100 µM (inactive) | > 100 µM (inactive) | > 100 µM (inactive) | > 100 µM (inactive) | – | > 100 µM (inactive) | > 100 µM (inactive) | > 100 µM (inactive) | > 100 µM (inactive) | > 100 µM (inactive) | > 100 µM (inactive) | > 100 µM | 74.3 µM (inactive) | > 100 µM (inactive) | > 100 µM (inactive) | > 100 µM (inactive) | > 100 µM (inactive) | > 100 µM (inactive) | > 100 µM (inactive)
O=CN(O)CC(=O)O | > 100 µM (inactive) | > 100 µM (inactive) | > 100 µM (inactive) | > 100 µM (inactive) | > 100 µM (inactive) | > 100 µM (inactive) | > 100 µM (inactive) | > 100 µM (inactive) | > 100 µM (inactive) | > 100 µM (inactive) | > 100 µM (inactive) | > 100 µM | > 100 µM (inactive) | > 100 µM (inactive) | > 100 µM (inactive) | > 100 µM (inactive) | > 100 µM (inactive) | > 100 µM (inactive) | > 100 µM (inactive)
CC(NNC(=O)c1cc[n+]([BH2-]C#N)cc1)C(F)(F)F (stereo not drawn) | > 100 µM (inactive) | > 100 µM (inactive) | > 100 µM (inactive) | > 100 µM (inactive) | > 100 µM (inactive) | > 100 µM (inactive) | > 100 µM (inactive) | > 100 µM (inactive) | > 100 µM (inactive) | > 100 µM (inactive) | > 100 µM (inactive) | > 100 µM | > 100 µM (inactive) | > 100 µM (inactive) | > 100 µM (inactive) | > 100 µM (inactive) | > 100 µM (inactive) | > 100 µM (inactive) | > 100 µM (inactive)
CN(C)Cc1cc(C(=O)/C=C/c2ccccc2)cc(CN(C)C)c1O | – | 32.5 µM (inactive) | 20.4 µM (inactive) | 16.8 µM (inactive) | 18.7 µM (inactive) | 27.9 µM (inactive) | 21.8 µM (inactive) | 13.3 µM (inactive) | 18.6 µM (inactive) | 27 µM (inactive) | 15.5 µM (inactive) | 30.3 µM | 36.1 µM (inactive) | 19.7 µM (inactive) | 11.7 µM (inactive) | 26.5 µM (inactive) | 13.3 µM (inactive) | 37.3 µM (inactive) | 5.14 µM (inactive)

Source: ChEMBL document CHEMBL1201862, “PubChem BioAssay data set” (2004)
